Data published in patent US20250302967A1, “PEPTIDE FORMULATIONS AND USES THEREOF” (Amytrx Therapeutics, Inc., priority 2022, published 2025).
Positions of bridges follow the written chain, without caps; N, C: chain ends. Residues, ends and D or L forms follow the SMILES beside them.

Assay: PK/biodistribution following single topical dose: whole blood and plasma radioactivity
Type: in vivo, male albino rats
Set-up: Non-plasma compartment: unit not given beside the values
Details: rat; for Concentration of radioactivity in recovered white blood cells: reverse wash of filters
Protocol: Whole blood and plasma radioactivity analysis, quantitative whole-body autoradiography (QWBA), and micro-autoradiography (mARG) studies are performed following a single topical dose administration to male rats. Formulation 1, Formulation 2, or Formulation 3, where Compound 1 is 3H-Compound 1, are applied in a single topical dose at a target dose of 5 mg/kg to six male albino rats.
An additional three male albino rats received a single topical appropriate amount of CETAPHIL (R) applied to the dose site approximately 1 hour prior to application of ^3H-Compound 1 in a single topical dose at a target dose of 5 mg/kg. An individual rat receiving the emollient pre-treatment was used for a single time-point of 2 hours, 8 hours, and 48 hours.

[1] = CETAPHIL 1 hr prior to single topical 5 mg/kg, 48 h, dosing device removed by rat, potential oral administration by grooming
[2] = CETAPHIL 1 hr prior to single topical 5 mg/kg, 48 h, dosing device removed, potential oral administration
[3] = CETAPHIL emollient 1 hr prior to single topical 5 mg/kg, 2 h
[4] = CETAPHIL emollient 1 hr prior to single topical 5 mg/kg, 8 h
[5] = single topical 5 mg/kg, without CETAPHIL, 1 h
[6] = single topical 5 mg/kg, without CETAPHIL, 1 h post-dose
[7] = single topical 5 mg/kg, without CETAPHIL, 2 h
[8] = single topical 5 mg/kg, without CETAPHIL, 2 h post-dose
[9] = single topical 5 mg/kg, without CETAPHIL, 4 h
[10] = single topical 5 mg/kg, without CETAPHIL, 4 h post-dose
[11] = single topical 5 mg/kg, without CETAPHIL, 8 h
[12] = single topical 5 mg/kg, without CETAPHIL, 8 h post-dose
[13] = single topical 5 mg/kg, without CETAPHIL, 24 h
[14] = single topical 5 mg/kg, without CETAPHIL, 24 h post-dose
[15] = single topical 5 mg/kg, without CETAPHIL, 48 h
[16] = single topical 5 mg/kg, without CETAPHIL, 48 h post-dose

For `CSCC[C@@H]1NC(=O)[C@H](CC(C)C)NC(=O)[C@H](CCCCN)NC(=O)[C@H](CCC(N)=O)NC(=O)[C@H](CCCNC(=N)N)NC(=O)[C@H](CCCCN)NC(=O)[C@H](CCCNC(=N)N)NC(=O)[C@H](CCC(N)=O)NC(=O)[C@H](C(C)C)NC(=O)[C@@H](NC(=O)[C@@H]2CCCN2C(=O)[C@H](C)NC(=O)[C@H](CC(C)C)NC(=O)[C@H](CC(C)C)NC(=O)[C@H](C)NC(=O)[C@H](CC(C)C)NC(=O)[C@H](CC(C)C)NC(=O)[C@@H](NC(=O)[C@H](C)NC(=O)[C@@H]2CCCN2C(=O)[C@H](CC(C)C)NC(=O)[C@H](CC(C)C)NC(=O)[C@H](C)NC(=O)[C@@H](NC(=O)[C@H](C)NC(=O)[C@H](C)N)C(C)C)C(C)C)CSSC[C@@H](C(=O)O)NC(=O)[C@@H]2CCCN2C1=O` [^3H-Compound 1] (H-AAVALLPAVLLALLAPCVQRKRQKLMPC-OH; disulfide 17-28), the “Cmax, total radioactivity” value (Plasma, single topical 5 mg/kg) was 14.53 ng/mL, the “Cmax, total radioactivity” value (Whole blood -WBC, single topical 5 mg/kg) was 11.68 ng/mL and the “Cmax, total radioactivity” value (Whole blood, single topical 5 mg/kg) was 2.282 ng/mL. The Blood [1] was 1630 ng/mL, the Plasma [1] was 2312 ng/mL and the Non-plasma compartment [2] was 19.2. For the same molecule, the Partition coefficient [2] was 80.8, the WBC depleted blood [2] was 303.9 ng equivalents/mL and the Blood [3] was 4.444 ng/mL. For the same molecule, the Non-plasma compartment [3] was 26.5, the Partition coefficient [3] was 73.5 and the Plasma [3] was 5.443 ng/mL. The WBC depleted blood [3] was 2.333 ng equivalents/mL, the Blood [4] was 16.05 ng/mL and the Non-plasma compartment [4] was 21.3. The Partition coefficient [4] was 78.7, the Plasma [4] was 21.04 ng/mL and the WBC depleted blood [4] was 3.223 ng equivalents/mL. For the same molecule, the “persistence in the blood” value (after a single topical administration) was > 48 h, the “time to penetrate the skin deep enough to reach blood vessels” value (cream formulation, single topical administration) was “less than one hour” and the “Concentration of radioactivity in recovered white blood cells” value (single topical 5 mg/kg, 1 h post-dose, may not represent total white blood cells) was “BLQ”. For the same molecule, the “Concentration of radioactivity in recovered white blood cells” value (single topical 5 mg/kg, 2 h post-dose) was “BLQ”, the “Concentration of radioactivity in recovered white blood cells” value (single topical 5 mg/kg, 4 h post-dose) was “BLQ” and the “Concentration of radioactivity in recovered white blood cells” value (single topical 5 mg/kg, 8 h post-dose) was “BLQ”. For the same molecule, the “Concentration of radioactivity in recovered white blood cells” value (single topical 5 mg/kg, 24 h post-dose) was “BLQ”, the “Concentration of radioactivity in recovered white blood cells” value (single topical 5 mg/kg, 48 h post-dose) was “BLQ” and the Non-plasma compartment [5] was 43.1. The Partition coefficient [5] was 56.9, the “Concentration of radioactivity in WBC depleted blood” value [6] was “BLQ” and the “Concentration of radioactivity in plasma” value [6] was 1.764 ng equivalents/mL. For the same molecule, the “Concentration of radioactivity in whole blood” value (from here on “Concentration … in whole blood”) [6] was 1.923 ng equivalents/mL, the Non-plasma compartment [7] was 24.9 and the Partition coefficient [7] was 75.1. For the same molecule, the “Concentration of radioactivity in WBC depleted blood” value [8] was “BLQ”, the “Concentration of radioactivity in plasma” value [8] was 4.818 ng equivalents/mL and the “Concentration … in whole blood” value [8] was 3.850 ng equivalents/mL. The Non-plasma compartment [9] was 34.0, the Partition coefficient [9] was 66.0 and the “Concentration of radioactivity in WBC depleted blood” value [10] was 0.735 ng equivalents/mL. For the same molecule, the “Concentration of radioactivity in plasma” value [10] was 4.896 ng equivalents/mL, the “Concentration … in whole blood” value [10] was 4.303 ng equivalents/mL and the Non-plasma compartment [11] was 27.8. For the same molecule, the Partition coefficient [11] was 72.2, the “Concentration of radioactivity in WBC depleted blood” value [12] was 2.282 ng equivalents/mL and the “Concentration of radioactivity in plasma” value [12] was 14.53 ng equivalents/mL. For the same molecule, the “Concentration … in whole blood” value [12] was 11.68 ng equivalents/mL, the Non-plasma compartment [13] was 30.4 and the Partition coefficient [13] was 69.6. The “Concentration of radioactivity in WBC depleted blood” value [14] was 1.166 ng equivalents/mL, the “Concentration of radioactivity in plasma” value [14] was 6.709 ng equivalents/mL and the “Concentration … in whole blood” value [14] was 5.593 ng equivalents/mL. For the same molecule, the Non-plasma compartment [15] was 21.7, the Partition coefficient [15] was 78.3 and the “Concentration of radioactivity in WBC depleted blood” value [16] was 1.109 ng equivalents/mL. The “Concentration of radioactivity in plasma” value [16] was 6.287 ng equivalents/mL, the “Concentration … in whole blood” value [16] was 4.978 ng equivalents/mL and the “partitioning among blood components” value (single topical dose, WBCs versus RBCs and RBC/WBC-depleted plasma) was “partitions to the WBCs (white blood cells) of blood preferentially”.
